Measurements published in patent US20230063321A1, “Methods for Treating Inflammatory Bowel Diseases with alpha4beta7 Integrin Antagonists” (Protagonist Therapeutics, Inc., priority 2020, published 2023).
Numbered stars: 1 amine (or outer) side, 2 acyl side, 3 side chain; on linkers, the order of the positions; unused ones are H or OH. Bridge positions count the residues as written; N and C are the ends. Square brackets hold non-standard residues; d marks the D form. Peptide text beside a SMILES is read from it. I, II: the chains in the order shown. ξ: configuration not given here. Phe(4-tBu) = CC(C)(C)c1ccc(C[C@H](N)C(=O)O)cc1; Diglycolyl = O=C(COCC(=O)[*:2])[*:1]; NMeR = CN[C@@H](CCCNC(=N)N)C(=O)O; β3hE = N[C@@H](CCC(=O)O)CC(=O)O; Thr(3ξ) = CC(O)[C@H](N)C(=O)O; X1 = O=C(c1ccccc1C[*:2])[*:1]; Pen = CC(C)(S)[C@H](N)C(=O)O

Test: Study 1 pharmacokinetics in healthy male volunteers (liquid solution)
Settings: for dose excreted at 24 h: 24-hour fecal recovery, intact

In the case of `CC(C)C[C@@H]1NC(=O)[C@H](C(C)O)NC(=O)[C@H](CC(=O)O)NC(=O)[C@H](CO)NC(=O)[C@H](CCCNC(=N)N)N(C)C(=O)c2ccccc2CSC(C)(C)[C@@H](C(=O)N[C@@H](Cc2ccc(C(C)(C)C)cc2)C(=O)N[C@@H](CCC(=O)O)CC(=O)N[C@H](CCCCNC(=O)COCC(=O)NCCCC[C@@H](NC(=O)C[C@H](CCC(=O)O)NC(=O)[C@H](Cc2ccc(C(C)(C)C)cc2)NC(=O)[C@H]2NC(=O)[C@H](CC(C)C)NC(=O)[C@H](C(C)O)NC(=O)[C@H](CC(=O)O)NC(=O)[C@H](CO)NC(=O)[C@H](CCCNC(=N)N)N(C)C(=O)c3ccccc3CSC2(C)C)C(=O)O)C(=O)O)NC1=O` (stereo partly drawn) [Compound A, ((2-Benzyl)-(N-Me-R)-Ser-Asp-Thr-Leu-Pen-(Phe(4-tBlu))-(β-homo-Glu)-(D-Lys)-OH)2 (SEQ ID NO: 5) and linker-DIG diglycolic acid] (I: [NMeR]SD[Thr(3ξ)]L[Pen][Phe(4-tBu)][β3hE][dK]-OH / II: [NMeR]SD[Thr(3ξ)]L[Pen][Phe(4-tBu)][β3hE][dK]-OH; linker I:9-II:9 via Diglycolyl; linker I:N-I:6, II:N-II:6 via X1), the half-life (human, plasma, oral, 100 mg, t½ (h), 100 mg Fed once daily, Day 1, N = 1) is reported as 3.85 h, the half-life (human, plasma, oral, 100 mg, t½ (h), 100 mg Fed once daily, Day 14, N = 1) is reported as 7.4 h and the half-life (human, plasma, oral, 300 mg, t½ (h), 300 mg Fed once daily, Day 1, N = 1) is reported as 7.96 h. For the same compound, the dose excreted at 24 h (male, human, faeces, oral, 300 mg, 300 mg fasted, multiple dose) was 0.73%, the dose excreted at 24 h (male, human, faeces, oral, 300 mg, 300 mg fed, multiple dose) was 1.78% and the dose excreted (male, human, faeces, oral, 300 mg, fecal recovery) was 1 to 2%. It also gave a dose excreted at 24 h (male, human, faeces, oral, 1000 mg, multiple dose) of 16.8%, a Tmax (male, human, plasma, oral, 100 mg, Tmax (h), 100 mg Fed once daily, Day 1, Median (Min, Max)) of 4 h and a Tmax (male, human, plasma, oral, 100 mg, Tmax (h), 100 mg Fed once daily, Day 14, Median (Min, Max)) of 4 h. The Tmax (male, human, plasma, oral, 100 mg, Tmax (h), single dose 100 mg, Median (Min, Max)) was 2 h, the Cmax (male, human, plasma, oral, 100 mg, mean peak plasma concentration (Cmax), single dose 100 mg) was 2.11 ng/mL and the half-life (male, human, plasma, oral, 100 mg, t½ (h), single dose 100 mg, Mean ± SD, N = 4) was 3.05 ± 0.71 h. It also gave a Tmax (male, human, plasma, oral, 300 mg, Tmax (h), 300 mg Fasted once daily, Day 1, Median (Min, Max)) of 2 h, a Tmax (male, human, plasma, oral, 300 mg, Tmax (h), 300 mg Fasted once daily, Day 14, Median (Min, Max)) of 2 h and a Tmax (male, human, plasma, oral, 300 mg, Tmax (h), 300 mg Fed once daily, Day 1, Median (Min, Max)) of 4 h. For the same compound, the Tmax (male, human, plasma, oral, 300 mg, Tmax (h), 300 mg Fed once daily, Day 14, Median (Min, Max)) was 4 h, the Tmax (male, human, plasma, oral, 300 mg, Tmax (h), single dose 300 mg Fasted, Median (Min, Max)) was 3 h and the Tmax (male, human, plasma, oral, 300 mg, Tmax (h), single dose 300 mg High Fat Meal, Median (Min, Max)) was 4 h. For the same compound, the half-life (male, human, plasma, oral, 300 mg, mean elimination half-life, single doses 100 and 300 mg) was 3.1 to 4 h, the half-life (male, human, plasma, oral, 300 mg, t½ (h), 300 mg Fasted once daily, Day 1, Mean ± SD) was 5.16 ± 1.92 h and the half-life (male, human, plasma, oral, 300 mg, t½ (h), 300 mg Fasted once daily, Day 14, Mean ± SD, N = 7) was 7.31 ± 3.86 h. The half-life (male, human, plasma, oral, 300 mg, t½ (h), single dose 300 mg Fasted, Mean ± SD, N = 4) was 4.02 ± 1.37 h, the Tmax (male, human, plasma, oral, 450 mg, Tmax (h), 450 mg Twice Daily, Day 1, Median (min, max)) was 2 h and the Tmax (male, human, plasma, oral, 450 mg, Tmax (h), 450 mg Twice Daily, Day 5, Median (min, max)) was 2 h. The Tmax (male, human, plasma, oral, 900 mg, Tmax (h), 900 mg Once Daily, Day 1, Median (min, max)) was 2 h, the Tmax (male, human, plasma, oral, 900 mg, Tmax (h), 900 mg Once Daily, Day 5, Median (min, max)) was 2 h and the half-life (male, human, plasma, oral, 900 mg, t½ (h), 900 mg Once Daily, Day 1, Mean ± SD) was 5.27 ± 2.4 h. For the same compound, the half-life (male, human, plasma, oral, 900 mg, t½ (h), 900 mg Once Daily, Day 5, Mean ± SD) was 6.24 ± 2.97 h, the Tmax (male, human, plasma, oral, 1000 mg, Tmax (h), 1000 mg Fasted once daily, Day 1, Median (Min, Max)) was 2 h and the Tmax (male, human, plasma, oral, 1000 mg, Tmax (h), 1000 mg Fasted once daily, Day 14, Median (Min, Max)) was 2 h. The Tmax (male, human, plasma, oral, 1000 mg, Tmax (h), single dose 1000 mg, Median (Min, Max)) was 4 h, the half-life (male, human, plasma, oral, 1000 mg, t½ (h), 1000 mg Fasted once daily, Day 1, Mean ± SD) was 6.6 ± 1.99 h and the half-life (male, human, plasma, oral, 1000 mg, t½ (h), 1000 mg Fasted once daily, Day 14, Mean ± SD) was 7.7 ± 3.69 h. It also gave a half-life (male, human, plasma, oral, 1000 mg, t½ (h), single dose 1000 mg, Mean ± SD, N = 7) of 5.26 ± 0.91 h, a Tmax (male, human, plasma, oral, 1400 mg, Tmax (h), single dose 1400 mg, Median (Min, Max)) of 4 h and a half-life (male, human, plasma, oral, 1400 mg, mean elimination half-life, single doses 1000 and 1400 mg) of 5.3 to 5.7 h. For the same compound, the half-life (male, human, plasma, oral, 1400 mg, t½ (h), single dose 1400 mg, Mean ± SD) was 5.74 ± 1.35 h, the half-life (male, human, plasma, oral, mean elimination half-life, multiple doses) was 5.2 to 7.7 h and the half-life (male, human, plasma, oral, terminal half-life, fasted state) was 3.1 to 5.7 h. For the same compound, the half-life (male, human, plasma, oral, terminal half-life, fed state) was 5.2 to 7.7 h, the Tmax (male, human, plasma, po, 300 mg, median time to peak plasma concentration, single dose 300 mg, meal 30 minutes after dosing) was 1 h and the dose excreted (male, human, urine, po, 300 mg, recovered intact in urine over 24 hours, 300 mg fasted, multiple dose) was 0.028%. The dose excreted (male, human, urine, po, 300 mg, recovered intact in urine over 24 hours, 300 mg fed, multiple dose) was 0.056%, the dose excreted (male, human, urine, po, 1000 mg, recovered intact in urine over 24 hours, multiple dose) was 0.056% and the accumulation (once daily) was “approximately 0.9 fold”. For the same compound, the “median time to peak plasma concentration” value (single dose 300 mg, meal 60 minutes after dosing) was 2 h, the “median time to peak plasma concentration” value (single dose 300 mg, meal 90 minutes after dosing) was 4 h and the accumulation (twice-daily) was ~1.6 fold.
